Laboratory results taken from publication PMC4319564 (Journal of materials chemistry. B, Materials for biology …, 2014).

System: PTX-resistant KB-V1 cervical cancer cells
Experiment: Cytotoxicity, SRB assay
Assay type: cell-based
Details: 48 h incubation, 0.01-1000 nM, triplicate

For `CC(=O)O[C@H]1C(=O)[C@@]2(C)[C@H]([C@H](OC(=O)c3ccccc3)[C@]3(O)C[C@H](OC(=O)[C@H](O)[C@@H](NC(=O)c4ccccc4)c4ccccc4)C(C)=C1C3(C)C)[C@]1(OC(C)=O)CO[C@@H]1C[C@@H]2O` [PTX, paclitaxel], which “Toxicity (in words)” value is on record?
Its value is “do not exert any toxicity”.
